Experimental data from patent publication US20230416262A1, “TRPML MODULATORS” (Casma Therapeutics, Inc., priority 2020, published 2023).

Tested on: THP-1 cells
Experiment: Lamp1 lysosomal exocytosis assay
Type: cell-based
Conditions: Homo sapiens, 55 min, 55 min incubation, top dose 20 μM
Description: For the Lamp1 lysosomal exocytosis assay, a human monocytic suspension cell line (THP-1) was used. Cells in culture should be used between a density of […] and 1.2e6/mL on the day of the assay. For each 96-well assay plate to be used, pellet 11e6 THP-1 cells at 330×g for 5 min in a 50 mL conical tube, aspirate media and resuspend in 22 mLs of RPMI 1640/10% FBS media for a final cell concentration of 5e5/mL. Prior to addition of cells to the assay plate, perform a 7 pt dilution curve using a top dose of compound at 2 mM and use a 3-fold serial dilution, the 8th point is DMSO only. Final top dose of compound in the assay was 20 μM. 2 μL of each serial dilution was transferred to a new 96-well v-bottom assay plate. 198 μL of cells (1e5 total cells/well) was prepared as above in each well of the assay plate and incubated at 37° C./5% CO2/95% RH for 55 min. After the 55 min incubation, cells were pelleted for 5 min at 4 C at 400×g in a tabletop centrifuge. The media was separated from the cell pellets in the plate. The pellets were washed using 200 μL ice cold buffer (PBS Ca^++/Mg^++ containing 2% final BSA and 80 μM final Dynasore). Cells were pelleted again at 400×g-5 min in a 4° C. tabletop centrifuge. Buffer was separated from cells. Each well was suspended in 75 uL Lamp1-PE antibody buffer (PBS Ca^++/Mg^++ containing 2% final BSA with 80 uM final Dynasore and 1:800 final dilution of Lamp 1-PE labeled antibody). After a 45 min antibody incubation on ice, 25 μL of sytox green was added (I drop/mL buffer), and each well was mixed and incubated for an additional 15 min on ice. After the 15 min sytox green incubation, 100 μL of ice-cold buffer (PBS Ca^++/Mg^++ containing 2% final BSA and 80 uM final Dynasore) was added and cells were pelleted for 5 min at 400×g. The buffer was removed and each sample was resuspended in 100 uL of ice-cold buffer (PBS Ca^++/Mg^++ containing 2% final BSA and 80 μM final Dynasore). FACs gating strategy: FACS analyze for sytox green (A488) and Lamp1-PE (DsRed). First gate against FSC-A/SSC-A to find non-fragmented or ‘live’ THP-1 cells. Next gate against FITC-A/FSC-A to omit sytox green positive cells. Then gate for FSC-A/FSC-H to remove any doublet cells. The last gate was a histogram for PE. The statistics for ‘count’ and ‘geometric mean fluorescence intensity’ (gWFI) for PE were repoted on the last gate.
Compounds having an activity designated as “++++” provided an exocytosis readout of ≤0.50 μM; compounds having an activity designated as “+++” provided an exocytosis readout of 0.51-1.00 μM; compounds having an activity designated as “++” provided an exocytosis readout of 1.01-5.00 μM; and compounds having an activity designated as “+” provided an exocytosis readout of ≥5.01 μM

EC50, ≥ 5.01 µM:
Cc1cc(CNC(=O)N2CCC3(CC2)CN(S(=O)(=O)c2ccc(C(F)F)cc2)c2ccccc23)no1 [Compound I-211, 1-((4-(difluoromethyl)phenyl)sulfonyl)-N-((5-methylisoxazol-3-yl)methyl)spiro[indoline-3,4′-piperidine]-1′-carboxamide]
Cc1cc(CNC(=O)N2CCC3(CC2)CN(S(=O)(=O)c2ccc(C(F)F)cc2)c2ccccc23)on1 [Compound I-212]
Cc1noc(C)c1NC(=O)N1CCC2(CC1)CN(S(=O)(=O)c1ccc(C(F)F)cc1)c1ccccc12 [Compound I-213, 1-((4-(difluoromethyl)phenyl)sulfonyl)-N-(3,5-dimethylisoxazol-4-yl)spiro[indoline-3,4′-piperidine]-1′-carboxamide]
O=C(NCCC(F)(F)F)N1CCC2(CC1)CN(S(=O)(=O)c1ccc(C(F)F)cc1)c1ccccc12 [Compound I-214, 1-((4-(difluoromethyl)phenyl)sulfonyl)-N-(3,3,3-trifluoropropyl)spiro[indoline-3,4′-piperidine]-1′-carboxamide]
O=C(NCC1CCOCC1)N1CCC2(CC1)CN(S(=O)(=O)c1ccc(C(F)F)cc1)c1ccccc12 [Compound I-215, 1-((4-(difluoromethyl)phenyl)sulfonyl)-N-((tetrahydro-2H-pyran-4-yl)methyl)spiro[indoline-3,4′-piperidine]-1′-carboxamide]
COc1ccc(NC(=O)N2CCC3(CC2)CN(S(=O)(=O)c2ccc(C(F)F)cc2)c2ccccc23)cn1 [Compound I-216, 1-((4-(difluoromethyl)phenyl)sulfonyl)-N-(6-methoxypyridin-3-yl)spiro[indoline-3,4′-piperidine]-1′-carboxamide]
Cc1nn(C)c(C)c1NC(=O)N1CCC2(CC1)CN(S(=O)(=O)c1ccc(C(F)F)cc1)c1ccccc12 [Compound I-217, 1-((4-(difluoromethyl)phenyl)sulfonyl)-N-(1,3,5-trimethyl-1H-pyrazol-4-yl)spiro[indoline-3,4′-piperidine]-1′-carboxamide]
O=C(NC1CCC(F)(F)CC1)N1CCC2(CC1)CN(S(=O)(=O)c1ccc(C(F)F)cc1)c1ccccc12 [Compound I-218, N-(4,4-difluorocyclohexyl)-1-((4-(difluoromethyl)phenyl)sulfonyl)spiro[indoline-3,4′-piperidine]-1′-carboxamide]
O=C(NC1CCS(=O)(=O)CC1)N1CCC2(CC1)CN(S(=O)(=O)c1ccc(C(F)F)cc1)c1ccccc12 [Compound I-224, 1-((4-(difluoromethyl)phenyl)sulfonyl)-N-(1,1-dioxidotetrahydro-2H-thiopyran-4-yl)spiro[indoline-3,4′-piperidine]-1′-carboxamide]
Cn1cc(NC(=O)N2CCC3(CC2)CN(S(=O)(=O)c2ccc(C(F)F)cc2)c2ccccc23)c(=O)n(C)c1=O [Compound I-229, 1-((4-(difluoromethyl)phenyl)sulfonyl)-N-(1,3-dimethyl-2,4-dioxo-1,2,3,4-tetrahydropyrimidin-5-yl)spiro[indoline-3,4′-piperidine]-1′-carboxamide]
O=C(NCc1ccccn1)C1CCC2(CC1)CN(S(=O)(=O)c1ccc(C(F)F)cc1)c1ccccc12 (stereo not shown) [Compound I-231, 1′-((4-(difluoromethyl)phenyl)sulfonyl)-N-(pyridin-2-ylmethyl)spiro[cyclohexane-1,3′-indoline]-4-carboxamide]
O=C(NCc1cccnc1)C1CCC2(CC1)CN(S(=O)(=O)c1ccc(C(F)F)cc1)c1ccccc12 (stereo not shown) [Compound I-232, 1′-((4-(difluoromethyl)phenyl)sulfonyl)-N-(pyridin-3-ylmethyl)spiro[cyclohexane-1,3′-indoline]-4-carboxamide]
O=C(NCc1ccncc1)C1CCC2(CC1)CN(S(=O)(=O)c1ccc(C(F)F)cc1)c1ccccc12 (stereo not shown) [Compound I-233, 1′-((4-(difluoromethyl)phenyl)sulfonyl)-N-(pyridin-4-ylmethyl)spiro[cyclohexane-1,3′-indoline]-4-carboxamide]
O=C(NCC1CC1)C1CCC2(CC1)CN(S(=O)(=O)c1ccc(C(F)F)cc1)c1ccccc12 (stereo not shown) [Compound I-236, N-(cyclopropylmethyl)-1′-((4-(difluoromethyl)phenyl)sulfonyl)spiro[cyclohexane-1,3′-indoline]-4-carboxamide]
O=C(C1CCC2(CC1)CN(S(=O)(=O)c1ccc(C(F)F)cc1)c1ccccc12)N1CCCC1 (stereo not shown) [Compound I-237, (1′-((4-(difluoromethyl)phenyl)sulfonyl)spiro[cyclohexane-1,3′-indolin]-4-yl)(pyrrolidin-1-yl)methanone]
O=C(C1CCC2(CC1)CN(S(=O)(=O)c1ccc(C(F)F)cc1)c1ccccc12)N1CCOCC1 (stereo not shown) [Compound I-238, (1′-((4-(difluoromethyl)phenyl)sulfonyl)spiro[cyclohexane-1,3′-indolin]-4-yl)(morpholino)methanone]
O=C(C1CCC2(CC1)CN(S(=O)(=O)c1ccc(C(F)F)cc1)c1ccccc12)N1CCC(F)(F)CC1 (stereo not shown) [Compound I-239, (1′-((4-(difluoromethyl)phenyl)sulfonyl)spiro[cyclohexane-1,3′-indolin]-4-yl)(4,4-difluoropiperidin-1-yl)methanone]
O=C(C1CCC2(CC1)CN(S(=O)(=O)c1ccc(C(F)F)cc1)c1ccccc12)N1CCC2(CCOC2)C1 (stereo not shown) [Compound I-240, (1′-((4-(difluoromethyl)phenyl)sulfonyl)spiro[cyclohexane-1,3′-indolin]-4-y1)(2-oxa-7-azaspiro[4.4]nonan-7-yl)methanone]
CCn1cc(CNC(=O)C2CCC3(CC2)CN(S(=O)(=O)c2ccc(C(F)F)cc2)c2ccccc23)cn1 (stereo not shown) [Compound I-241, 1′-((4-(difluoromethyl)phenyl)sulfonyl)-N-((1-ethyl-1H-pyrazol-4-yl)methyl)spiro[cyclohexane-1,3′-indoline]-4-carboxamide]
CN(Cc1ccon1)C(=O)C1CCC2(CC1)CN(S(=O)(=O)c1ccc(C(F)F)cc1)c1ccccc12 (stereo not shown) [Compound I-242, 1′-((4-(difluoromethyl)phenyl)sulfonyl)-N-(isoxazol-3-ylmethyl)-N-methylspiro[cyclohexane-1,3′-indoline]-4-carboxamide]
CN(C(=O)C1CCC2(CC1)CN(S(=O)(=O)c1ccc(C(F)F)cc1)c1ccccc12)c1ccnn1C (stereo not shown) [Compound I-243, 1′-((4-(difluoromethyl)phenyl)sulfonyl)-N-methyl-N-(1-methyl-1H-pyrazol-5-yl)spiro[cyclohexane-1,3′-indoline]-4-carboxamide]
O=C(C1CCC2(CC1)CN(S(=O)(=O)c1ccc(C(F)F)cc1)c1ccccc12)N1CCC2(COC2)C1 (stereo not shown) [Compound I-244, (1′-((4-(difluoromethyl)phenyl)sulfonyl)spiro[cyclohexane-1,3′-indolin]-4-yl)(2-oxa-6-azaspiro[3.4]octan-6-yl)methanone]
